Values quoted from earlier work in US20200093804A1, “PHARMACEUTICAL COMPOSITION OF EVEROLIMUS” (INTAS PHARMACEUTICALS LTD., priority 2017, published 2020).

Conditions: from literature

solubility: poor
stability: poor
SMILES: CO[C@H]1C[C@@H]2CC[C@@H](C)[C@@](O)(O2)C(=O)C(=O)N2CCCC[C@H]2C(=O)O[C@H]([C@H](C)C[C@@H]2CC[C@@H](OCCO)[C@H](OC)C2)CC(=O)[C@H](C)/C=C(\C)[C@@H](O)[C@@H](OC)C(=O)[C@H](C)C[C@H](C)/C=C/C=C/C=C/1C [Everolimus, (1R,9S,12S,15R,16E,18R,19R,21R,23S,24E,26E,28E,30S,32S,35R)-1,18dihydroxy-12-{(1R)-2-[(1S,3R,4R)-4-(2-hydroxyethoxy)-3-methoxycyclohexyl]-1-methylethyl}-19,30-dimethoxy15,17,21,23,29,35-hexamethyl-11, 36-dioxa-4-aza-tricyclo[30.3.1.04,9]hexatriaconta-16,24,26,28-tetraene-2,3,10, 14,20pentaone]
